Values after ≈ are worked out from the molar mass of the structure shown.
What was measured:
[1] = system: rhinovirus type 14 (HRV14); test: Inhibition of HRV14 cytopathogenic effect (CPE) in HeLa cells; type: cell-based; conditions: for CI HRV14 (D)/(B): CI = CD50 (HeLa)/IC50 (virus CPE); for IC50: Enterovirus, HRV14, * Virus CPE inhibition assay, HeLa cells, 33° C.
[2] = system: enterovirus type 70 (EV70); test: Inhibition of EV70 cytopathogenic effect (CPE) in LLC-MK2 cells; type: cell-based; conditions: for CI EV70 (C)/(A): CI = CD50 (LLC-MK2)/IC50 (virus CPE); for IC50: Enterovirus D, * Virus CPE inhibition assay, LLC-MK2 cells, 33° C.
in vitro [3] = conditions: human, hela cells
[4] = system: coxsackievirus type B4 (CB4); test: Inhibition of CB4 cytopathogenic effect (CPE) in LLC-MK2 cells; type: cell-based; conditions: for CI CB4 (C)/(A): CI = CD50 (LLC-MK2)/IC50 (virus CPE); for IC50: Coxsackievirus, * Virus CPE inhibition assay, LLC-MK2 cells, 37° C.
in vitro [5] = conditions: monkey, llc-mk2 cells
[6] = Cytotoxicity, morphology of LLC-MK2 cells; conditions: monkey
[7] = system: enterovirus type 70 (EV70); test: Inhibition of EV70 plaque formation in LLC-MK2 cells; type: cell-based; conditions: for CI EV70 (C)/(A): CI = CD50 (LLC-MK2)/IC50 (plaque); for IC50: Enterovirus D, plaque reduction, LLC-MK2 cells, 33° C.
[8] = system: coxsackievirus type B4 (CB4); test: Inhibition of CB4 plaque formation in LLC-MK2 cells; type: cell-based; conditions: for IC50: Coxsackievirus, plaque reduction, LLC-MK2 cells, 37° C.; for CI CB4 (C)/(A): CI = CD50 (LLC-MK2)/IC50 (plaque)
[9] = system: poliovirus type 2 (Polio2); test: microbe, parasite or virus in culture; type: cell-based; conditions: for IC50: Enterovirus C, LLC-MK2, read-out: IC50 Polio2; for CI Polio2 (C)/(A): CI = CD50 (LLC-MK2)/IC50 (plaque)
[10] = system: rhinovirus type 14 (HRV14); test: Inhibition of HRV14 plaque formation in HeLa cells; type: cell-based; conditions: for IC50: Enterovirus, HRV14, plaque reduction, HeLa cells, 33° C.
[11] = Cytotoxicity, morphology of HeLa cells; conditions: human
CB4 strain 637 = test: Anti-coxsackievirus activity in vivo, CB4-induced hypoglycemia in SJL/J mice; conditions: single, daily intraperitoneal doses as low as 20 mg/kg, initiated 2 hr after infection and continued for 5 days
Method: Anti-coxsackievirus activity, in vivo. Compound No. XII and XXI were examined for its activity against CB4-induced hypoglycemia in SJL/J mice. […] Blood specimens were collected from the tail vein of each mouse before and 2, 3, 4 and 5 days after infection for assaying its plasma glucose levels. The differences in mean relative plasma glucose of uninfected control and compound-treated groups or placebo groups were evaluated by Student's t-test.

With CCc1ccc2c(c1)nc(CNc1ccncc1)n2-c1ccccc1 [XLIV] the “CI HRV14 (D)/(B)” value [1] was over 6, the IC50 [1] was 17.8 µg/mL (≈ 54.2 µM) and the “CI EV70 (C)/(A)” value [2] was over 31. For the same compound, the IC50 [2] was 3.2 µg/mL (≈ 9.74 µM), the CC50 (in vitro [3]) was over 100 µg/mL and the “CI CB4 (C)/(A)” value [4] was over 15. For the same compound, the IC50 [4] was 6.8 µg/mL (≈ 20.7 µM) and the CC50 (in vitro [5]) was over 100 µg/mL.

In the case of CCc1ccc2c(c1)nc(CNc1ccncc1)n2C [XXXVII], the CC50 [6] is reported as over 100 µg/mL, the “CI EV70 (C)/(A)” value [7] is reported as over 5 and the IC50 [7] is reported as 22 µg/mL (≈ 82.6 µM). For the same compound, the IC50 [8] was over 50 µg/mL, the IC50 [9] was over 100 µg/mL and the IC50 [10] was 20 µg/mL (≈ 75.1 µM).

For Cc1cc2nc(CNc3ccncc3)[nH]c2cc1Br [XXVIII], the CC50 [6] was 177 µg/mL (≈ 557 µM), the “CI EV70 (C)/(A)” value [7] was 88 and the IC50 [7] was 2 µg/mL (≈ 6.31 µM). For the same compound, the “CI CB4 (C)/(A)” value [8] was 13, the IC50 [8] was 13.5 µg/mL (≈ 42.6 µM) and the “CI Polio2 (C)/(A)” value [9] was 5. For the same compound, the IC50 [9] was 34 µg/mL (≈ 107 µM), the CC50 [11] was 56.2 µg/mL (≈ 177 µM) and the “CI HRV14 (D)/(B)” value ([10]; CI = CD50 (HeLa)/IC50 (plaque)) was 15. It also gave an IC50 [10] of 3.6 µg/mL (≈ 11.3 µM).

In the case of CCOc1ccc2[nH]c(CNc3ccncc3)nc2c1 [IV], the IC50 [1] is reported as over 100 µg/mL, the “CI EV70 (C)/(A)” value [7] is reported as over 3 and the IC50 [7] is reported as 39 µg/mL (≈ 145 µM). For the same compound, the CC50 (in vitro [3]) was over 100 µg/mL, the “CI CB4 (C)/(A)” value [8] was over 1 and the IC50 [8] was 93 µg/mL (≈ 347 µM). The CC50 (in vitro [5]) was over 100 µg/mL and the IC50 [9] was 460 µg/mL (≈ 1710 µM).

In the case of CCc1ccc2nc(CNc3ccncc3)n(-c3ccccc3)c2c1 [XLV], the “CI HRV14 (D)/(B)” value [1] is reported as 10, the IC50 [1] is reported as 5.6 µg/mL (≈ 17.1 µM) and the “CI EV70 (C)/(A)” value [7] is reported as 35. For the same compound, the IC50 [7] was 1.6 µg/mL (≈ 4.87 µM), the CC50 (in vitro [3]) was 56.2 µg/mL (≈ 171 µM) and the “CI CB4 (C)/(A)” value [8] was 11. It also gave an IC50 [8] of 5 µg/mL (≈ 15.2 µM), a CC50 (in vitro [5]) of 56.2 µg/mL (≈ 171 µM) and an IC50 [9] of over 100 µg/mL.

For Cc1cc(Cl)cc2[nH]c(CNc3ccncc3)nc12 [XXV], the IC50 [1] was 17.8 µg/mL (≈ 65.3 µM), the “CI EV70 (C)/(A)” value [2] was 13 and the IC50 [2] was 56.2 µg/mL (≈ 206 µM). For the same compound, the CC50 (in vitro [3]) was 17.8 µg/mL (≈ 65.3 µM) and the CC50 (in vitro [5]) was 707 µg/mL (≈ 2590 µM).

In the case of CCc1ccccc1-n1c(CNc2ccncc2)nc2ccccc21 [LXV], the IC50 [1] is reported as over 100 µg/mL, the IC50 [2] is reported as over 100 µg/mL and the CC50 (in vitro [3]) is reported as over 100 µg/mL. The IC50 [4] was over 100 µg/mL and the CC50 (in vitro [5]) was over 100 µg/mL.

With Cc1ccc2nc(CNc3ccncc3)n(-c3ccccc3)c2c1 [XLIII] the IC50 [1] was over 100 µg/mL, the “CI EV70 (C)/(A)” value [2] was over 6 and the IC50 [2] was 17.8 µg/mL (≈ 56.6 µM). For the same compound, the CC50 (in vitro [3]) was over 100 µg/mL, the “CI CB4 (C)/(A)” value [4] was over 31 and the IC50 [4] was 3.2 µg/mL (≈ 10.2 µM). It also gave a CC50 (in vitro [5]) of over 100 µg/mL.

For c1ccc2c(c1)nc(CNc1ccncc1)n2-c1nccs1 [LXXIII], the IC50 [1] was over 100 µg/mL, the IC50 [2] was over 100 µg/mL and the CC50 (in vitro [3]) was over 100 µg/mL. The IC50 [4] was over 100 µg/mL and the CC50 (in vitro [5]) was over 100 µg/mL.

For Cc1cc(Cl)c2nc(CNc3ccncc3)[nH]c2c1 [XXVI], the IC50 [1] was over 56.2 µg/mL, the IC50 [2] was over 100 µg/mL and the CC50 (in vitro [3]) was 56.2 µg/mL (≈ 206 µM). For the same compound, the CC50 (in vitro [5]) was 1410 µg/mL (≈ 5180 µM).

Compound Fc1ccc2nc(CNc3ccncc3)n(-c3ccccc3)c2c1 [XLVIII] has a CC50 [6] of over 100 µg/mL, an IC50 [2] of over 100 µg/mL and an IC50 [4] of over 100 µg/mL.

With Cn1c(CNc2ccncc2)nc2cc(Cl)ccc21 [XXXVIII] the CC50 [6] was over 100 µg/mL, the IC50 [7] was 115 µg/mL (≈ 422 µM) and the “CI CB4 (C)/(A)” value [8] was over 2. It also gave an IC50 [8] of 56 µg/mL (≈ 205 µM), an IC50 [9] of over 100 µg/mL and an IC50 [10] of over 50 µg/mL.

With COc1cc2nc(CNc3ccncc3)[nH]c2cc1Cl [XXXIII] the CC50 [6] was over 100 µg/mL, the “CI EV70 (C)/(A)” value [2] was over 2 and the IC50 [2] was 56.2 µg/mL (≈ 195 µM).

For CCCn1c(CNc2ccncc2)nc2ccccc21 [XII], the “onset of CB4-induced hypoglycemia” value (CB4 strain 637) was “inhibited the onset of CB4-induced hypoglycemia”, the “CI EV70 (C)/(A)” value [7] was over 465 and the IC50 [7] was 4.3 µg/mL (≈ 16.1 µM). For the same compound, the “CI CB4 (C)/(A)” value [8] was > 4,255, the IC50 [8] was 0.47 µg/mL (≈ 1.76 µM) and the CC50 (in vitro [5]) was over 2000 µg/mL. The “CI Polio2 (C)/(A)” value [9] was over 556, the IC50 [9] was 3.6 µg/mL (≈ 13.5 µM) and the IC50 [10] was over 50 µg/mL.

With CCc1cc2c(cc1Cl)nc(CNc1ccncc1)n2-c1ccccc1 [LXXV, 1-phenyl-2-(4-pyridylaminomethyl)-5-chloro-6-ethylbenzimidazole] the “CI HRV14 (D)/(B)” value [1] was 3, the IC50 [1] was 5.6 µg/mL (≈ 15.4 µM) and the “CI EV70 (C)/(A)” value [2] was over 2. For the same compound, the IC50 [2] was over 56.2 µg/mL, the CC50 (in vitro [3]) was 17.8 µg/mL (≈ 49.1 µM) and the IC50 [4] was over 100 µg/mL. The CC50 (in vitro [5]) was over 100 µg/mL.

Work on Clc1cc(Cl)c2nc(CNc3ccncc3)[nH]c2c1 [XXVII] yielded an IC50 [1] of over 17.8 µg/mL, an IC50 [2] of over 100 µg/mL and a CC50 (in vitro [3]) of 17.8 µg/mL (≈ 60.7 µM). The CC50 (in vitro [5]) was over 100 µg/mL.
